# Laboratory results published in patent publication US20260207632A1, “C[…] THERAPY” (KINGDOM THERAPEUTICS LIMITED, priority 2022, published 2026).
# What was measured:
# rat VPA model of autism [1] = assay: Juvenile social play behaviour (P30) in the in utero valproic acid (VPA) rat model of autism; format: in vivo; design: key to play behaviour: +: improvement; Ø: no change
# Method: Time-mated female Wistar rats were administered a single dose of valproic acid (VPA, 600 mg/kg, i.p.) on gestational day 12.5 (VPA/VEH). To determine behavioural deficits in the VPA autism model, male offspring were tested at juvenile (postnatal day 30) for the presence of abnormal behaviours associated with autism e.g., decreased sociability and increased irritability.
# (§1) In the first study, a sub-chronic 8-day dosing schedule was employed with the test compound CBD administered alone (10, 30 and 60 mg/kg, p.o. VPA/CBD; dose volume 5 ml/kg). Control animals were administered sterile saline (0.9% w/v, i.p.) in utero and the vehicle control (ethanol: Kolliphor HS-15:0.9% saline (1:1:18, v/v/v) p.o. VEH/VEH). The test compound and vehicle control were administered to the animals once daily for 7 days prior to, and once again on each day of behavioural assessment, 60 minutes prior to test which consisted of a battery of behavioural paradigms: P30 social play and bottle brush test, P31-32 open field exploratory behaviour. A reference positive control, the atypical antipsychotic risperidone (0.125 mg/kg, i.p., once per day for 8 days prior to and for duration of behavioural testing), was included in study one for comparison. Subsequent to behavioural analysis the effect of CBD on gastrointestinal permeability was evaluated four hours following oral administration of fluorescein isothiocyanate-labelled dextran measured in plasma on postnatal day 33. On postnatal day 34, 60 minutes post a final treatment with the test agents, animals were humanely euthanised and samples collected to evaluate inflammatory biomarkers, gastrointestinal function and histology. 5 In the second study, the sub-optimal dose of CBD (30 mg/kg, p.o.) was evaluated in combination with administration of THC at increasing concentration (0.75, 1.5 and 3 mg/kg, p.o. VPA/CBD+THC). Comparison was made to CBD administered alone at the sub-optimal and effective doses (30 and 60 mg/kg, p.o.) and to vehicle controls as per study one. Behavioural and gastrointestinal readouts were examined as per study one with terminal samples collected on the final day of the experiment.
# Time-mated female Wistar Han Rcc rats (Envigo, UK) were administered a single dose of valproic acid (VPA, Sigma Aldrich, Ireland, lot no. MKCB2699V, 600 mg/kg, i.p.) or vehicle (0.9% saline i.p.) on gestational day 12.5. Confirmation of the VPA induced developmental deficit was rapidly achieved by examination of characteristic “tail kinks” observed in all of the juvenile animals exposed to VPA. Litters were normalised to 8 animals and to male offspring at postnatal day 3. Male pups were cross fostered to make up the uniform litter size of eight. Male offspring were housed as per standard laboratory conditions until time of experimental use. Vehicle-treated control animals were employed as controls, with animals for both parts of the study prepared together. At weaning, animals were allocated into test groups according to a balanced design based on weight and litter to distribute these equally across each treatment group. Animals were introduced to the experimental holding rooms prior to the commencement of the study, housed in groups of 4 during this period in soft bottomed cages with sawdust bedding material, with enrichment consisting of nesting material, cardboard tubes and Perspex internal shelter, and maintained at 22-24° C. on a standard 12-hour light/dark cycle (07.30-19.30), with food and water available ad libitum. All animals were examined and weighed daily during drug treatment and experimental protocols. All procedures were carried out by individuals retaining the appropriate authorisation from the Irish Government Health Products Regulatory Authority. Furthermore, the study protocol was approved by the Animal Research Ethics Committee of University College Dublin, Ireland. […]
# rat VPA model of autism [2] = assay: Muscle thickness in rat colonic tissue (H&E histology), VPA rat model; format: in vivo; conditions: for Average Muscle Thickness: VPA in utero
# Method: Five animals were chosen at random from each of the agreed treatment groups. Colon tissue was collected after euthanasia, weighted, flushed using cold sterile saline, and divided into three sections. One distal sample (approx. 1 cm×1 cm) was employed for intestinal myeloperoxidase (MPO) activity as described below by Berand Ltd. This sample was weighed and stored at −80° C. until use. A second proximal colon sample (approx. 1 cm×5 cm) was prepared for histological analysis by collection using the Swiss roll technique, placed into a cassette for paraffin embedding and preservation in 10% formalin solution for 24 hours. They were then transferred into 70% ethanol solution until paraffin embedded. These samples were shipped in 70% ethanol solution to Transpharmation Ltd at trinity College Dublin, Ireland for further processing. Haematoxylin & eosin staining was performed on the tissue before imaging. Five images were taken from each animal at 1.25× magnification. Using ImageJ the thickness of the muscle layer was measured at 5 locations throughout the section. A third medial section of colon (approx. 1 cm×2.5 cm) was frozen in liquid nitrogen for the analysis of cytokine expression and was shipped at minus 80° C. to Transpharmation Ltd at Trinity College Dublin, Ireland.
# Staining was performed using the Haematoxylin and Eosin kit from Vector Laboratories (Cat. No. H-3502). Sections were deparaffinized and rehydrated by washing in xylene (3×5 min), 100% ethanol (1 min), 96% ethanol (1 min) and distilled water (2 min). Each section was fully covered in haematoxylin stain and left for 5 min before being washed twice in distilled water for 15 s. […]
# Sections were imaged using an Olympus BX51 microscope at a magnification of 1.25×. Images were then analysed using ImageJ software. Thickness of muscle were measured from luminal surface to muscularis mucosa and from luminal surface to external muscle layer. […]
# For the histological analysis of colonic tissue, statistical analysis was performed using GraphPad Prism 9. Normality was assessed using the Shapiro-Wilk test. […]
# [3] = test system: rodent in utero VPA model of autism; assay: Behavioural changes in rodent in utero VPA model of autism (overall conclusion); format: in vivo, rat; conditions: sub-chronic treatment with CBD alone, p.o.
# Method: as §1, with “A reference positive control, the atypical antipsychotic risperidone (0.125 mg/kg, i.p., once per day for 8 days prior to and for duration of behavioural testing), was included in study one for comparison.” left out, “On postnatal day 34, 60 minutes post a final treatment with the test agents, animals were humanely euthanised and samples collected to evaluate inflammatory biomarkers, gastrointestinal function and histology.” left out, “Comparison was made to CBD administered alone at the sub-optimal and effective doses (30 and 60 mg/kg, p.o.) and to vehicle controls as per study one.” left out
# Two experimental studies carried out 1). that established the effective dose of CBD and 2). determined the additive effect of CBD in combination with THC at increasing ratios. […]
# [4] = study one, CBD 60 mg/kg, vs VPA/VEH
# [5] = study one, risperidone 0.125 mg/kg
structure (smiles),measurement,setting,value
"C=C(C)[C@@H]1CCC(C)=C[C@H]1c1c(O)cc(CCCCC)cc1O [CBD, cannabidiol]",play behaviour,"rat VPA model of autism [1]; cohort one, CBD 10 mg/kg p.o.",Ø
same,play behaviour,"rat VPA model of autism [1]; cohort one, CBD 30 mg/kg p.o.",Ø
same,play behaviour,"rat VPA model of autism [1]; cohort one, CBD 60 mg/kg p.o.",+
same,play behaviour,"rat VPA model of autism [1]; cohort two, CBD 30 mg/kg, THC 0 mg/kg p.o.",Ø
same,play behaviour,"rat VPA model of autism [1]; cohort two, CBD 60 mg/kg, THC 0 mg/kg p.o.",+
same,Mount Duration (sec),"rat VPA model of autism [1]; study one, CBD 10 mg/kg",X (X = no effect)
same,Mount Frequency,"rat VPA model of autism [1]; study one, CBD 10 mg/kg",X (X = no effect)
same,Social Play Duration (sec),"rat VPA model of autism [1]; study one, CBD 10 mg/kg",X (X = no effect)
same,Social Play Frequency,"rat VPA model of autism [1]; study one, CBD 10 mg/kg",X (X = no effect)
same,Social Play Latency (sec),"rat VPA model of autism [1]; study one, CBD 10 mg/kg",X (X = no effect)
same,latency to engage in mounting play behaviour (delay),"rat VPA model of autism [1]; study one, CBD 10 mg/kg, vs VPA/VEH",significantly attenuated
same,Mount Duration (sec),"rat VPA model of autism [1]; study one, CBD 30 mg/kg",X (X = no effect)
same,Mount Frequency,"rat VPA model of autism [1]; study one, CBD 30 mg/kg",X (X = no effect)
same,Social Play Duration (sec),"rat VPA model of autism [1]; study one, CBD 30 mg/kg",X (X = no effect)
same,Social Play Frequency,"rat VPA model of autism [1]; study one, CBD 30 mg/kg",X (X = no effect)
same,Social Play Latency (sec),"rat VPA model of autism [1]; study one, CBD 30 mg/kg",X (X = no effect)
same,latency to engage in mounting play behaviour (delay),"rat VPA model of autism [1]; study one, CBD 30 mg/kg, vs VPA/VEH",significantly attenuated
same,Social Play Frequency,"rat VPA model of autism [1]; study one, CBD 60 mg/kg",X (X = no effect)
same,Social Play Latency (sec),"rat VPA model of autism [1]; study one, CBD 60 mg/kg",X (X = no effect)
same,decrease in duration of mounting behaviour,rat VPA model of autism [1]; [4],reversed
same,decrease in frequency of mounting behaviour,rat VPA model of autism [1]; [4],ameliorated
same,latency to engage in mounting play behaviour (delay),rat VPA model of autism [1]; [4],significantly attenuated
same,reduction in social play duration,rat VPA model of autism [1]; [4],significantly attenuated
same,reduction in social play duration,"rat VPA model of autism [1]; study two, CBD 30 mg/kg",without effect
same,decrease in duration of mounting behaviour,"rat VPA model of autism [1]; study two, CBD 60 mg/kg",reversed
same,reduction in social play duration,"rat VPA model of autism [1]; study two, CBD 60 mg/kg, vs VPA/VEH",significantly attenuated
same,Mount Duration (sec),"rat VPA model of autism [1]; study two, CBD alone 30 mg/kg",X (X = no effect)
same,Mount Frequency,"rat VPA model of autism [1]; study two, CBD alone 30 mg/kg",X (X = no effect)
same,Mount Latency (sec),"rat VPA model of autism [1]; study two, CBD alone 30 mg/kg",X (X = no effect)
same,Social Play Duration (sec),"rat VPA model of autism [1]; study two, CBD alone 30 mg/kg",X (X = no effect)
same,Social Play Frequency,"rat VPA model of autism [1]; study two, CBD alone 30 mg/kg",X (X = no effect)
same,Social Play Latency (sec),"rat VPA model of autism [1]; study two, CBD alone 30 mg/kg",X (X = no effect)
same,Mount Frequency,"rat VPA model of autism [1]; study two, CBD alone 60 mg/kg",X (X = no effect)
same,Mount Latency (sec),"rat VPA model of autism [1]; study two, CBD alone 60 mg/kg",X (X = no effect)
same,Social Play Frequency,"rat VPA model of autism [1]; study two, CBD alone 60 mg/kg",X (X = no effect)
same,Social Play Latency (sec),"rat VPA model of autism [1]; study two, CBD alone 60 mg/kg",X (X = no effect)
same,Average Muscle Thickness,rat VPA model of autism [2]; CBD 30 mg/kg,220.4 μm
same,Average Muscle Thickness,rat VPA model of autism [2]; CBD 60 mg/kg,207.2 μm
same,thinning of colonic muscle,"rat VPA model of autism [2]; VPA rats, treatment with CBD (30, 60 mg/kg)",attenuated
same,minimum effective dose,[3],60 mg/kg
"Cc1nc2n(c(=O)c1CCN1CCC(c3noc4cc(F)ccc34)CC1)CCCC2 [Risperidone, risperidone]",play behaviour,"rat VPA model of autism [1]; cohort one, risperidone 0.125 mg/kg i.p.",Ø
same,any other measure of play or social interaction in juvenile animals,rat VPA model of autism [1]; risperidone 0.125 mg/kg,without effect
same,Mount Duration (sec),rat VPA model of autism [1]; [5],X (X = no effect)
same,Mount Frequency,rat VPA model of autism [1]; [5],X (X = no effect)
same,Social Play Duration (sec),rat VPA model of autism [1]; [5],X (X = no effect)
same,Social Play Frequency,rat VPA model of autism [1]; [5],X (X = no effect)
same,Social Play Latency (sec),rat VPA model of autism [1]; [5],X (X = no effect)
